Biological target: IDO1 (Homo sapiens, UniProt P14902)
Test: IDO1 cellular activity using HEK293 cells transfected with IDO1 expression vector
Format: cell-based
Parameters: host or cells: HEK293 cells, transient transfection with Lipofectamine 2000
Conditions: 24 h compound incubation, read-out: Inhibitory Activity (IC50)
Procedure: HEK293 cells were seeded at a density of 30000 cells/well in 100 μl of a culture medium (DMEM supplemented with 10% FBS, penicillin 100 U/ml, and streptomycin 100 μg/ml) in a tissue culture-treated 96 well plate. The cells were cultured in a 5% carbon dioxide incubator for 24 hours, transfected with the IDO1 expression vector (component A in IDO1 cell-based assay kit, catalog #72031, BPS Bioscience) using Lipofectamine 2000 (Life Technologies, #11668027), and then cultured for 24 hours in a 5% carbon dioxide incubator to express the IDO protein.
The activities were measured using a IDO1 cell-based assay kit (catalog #72031, BPS Bioscience). Specifically, an assay medium was prepared by diluting IDO1 assay medium substrate 1 and IDO1 assay medium supplement 2 in a culture medium at a ratio of 1:100, respectively. The test compounds were diluted to the predetermined concentrations in the fresh assay medium. After removing the culture medium using a multi-pipet, 200 μl of each assay medium containing the test material was added into respective well, followed by incubating in a 5% carbon dioxide incubator for 24 hours. The next day, 140 μl of culture medium from each well was transferred to a new 96-well plate. 10 μl of 6.1N trichloroacetic acid was added into each well, which was then cultured in a 50° C. incubator for 30 minutes. The plate was centrifuged at 2500 rpm for 10 minutes to settle any sediment. A detection reagent solution was prepared by diluting the detection reagent (component D in IDO1 cell-based assay kit, catalog #72031 BPS Bioscience) 50-fold in acetic acid. 100 μl of the supernatant taken from the centrifuged plate was transferred to a new transparent 96-well plate and then 100 μl of the detection reagent solution was added thereto. After reacting at room temperature for 10 minutes, absorbance was measured at 480 nm wavelength. For analysis of the results, the absorbance (At) of the well containing HEK293 cells in which IDO protein was expressed without treatment of an inhibitor was 100%; and the absorbance (Ab) of the well containing HEK293 cells in which IDO protein was not expressed was 0. The % absorbance was calculated according to the following equation: % Absorbance=(A−Ab)/(At−Ab), A=absorbance of the well treated with the test compound.

Sequence of IDO1 (P14902 whole entry): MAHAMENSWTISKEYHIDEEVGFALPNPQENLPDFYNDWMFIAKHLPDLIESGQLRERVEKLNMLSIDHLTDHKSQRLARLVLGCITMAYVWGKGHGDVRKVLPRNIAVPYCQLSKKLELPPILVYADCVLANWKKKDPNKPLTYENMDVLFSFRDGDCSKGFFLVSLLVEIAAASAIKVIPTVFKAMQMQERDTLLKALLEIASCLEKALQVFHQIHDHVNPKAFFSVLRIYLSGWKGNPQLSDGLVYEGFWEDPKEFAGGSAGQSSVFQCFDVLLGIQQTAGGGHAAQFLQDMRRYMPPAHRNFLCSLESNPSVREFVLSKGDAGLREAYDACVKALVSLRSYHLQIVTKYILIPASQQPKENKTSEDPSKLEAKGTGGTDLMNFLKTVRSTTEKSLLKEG

| Compound | IC50 [nM] |
| --- | --- |
| COc1cccc2c(N[C@H](C)C[C@H]3CC[C@H](c4ccnc5ccc(F)cc54)CC3)nc(Cl)nc12 [Example 52, 2-chloro-N-((R)-1-((trans)-4-(6-fluoroquinolin-4-yl)cyclohexyl)propan-2-yl)-8-methoxyquinazolin-4-amine] | 260 |
| C[C@H](C[C@H]1CC[C@@H](c2ccnc3ccc(F)cc32)CC1)Nc1nccc2cc(F)ccc12 [Example 33, 6-fluoro-N-((R)-1-((cis)-4-(6-fluoroquinolin-4-yl)cyclohexyl)propan-2-yl)isoquinolin-1-amine] | 116 |
| COc1ccc2nc(N[C@H](C)C[C@H]3CC[C@@H](c4ccnc5ccc(F)cc54)CC3)oc2c1F [Example 42, 7-fluoro-N-((R)-1-((cis)-4-(6-fluoroquinolin-4-yl)cyclohexyl)propan-2-yl)-6-methoxybenzo[d]oxazol-2-amine] | 6.6 |
| COc1ccc2c(N[C@H](C)C[C@H]3CC[C@@H](c4ccnc5ccc(F)cc54)CC3)nc(Cl)nc2c1 [Example 67, 2-chloro-N-((R)-1-((cis)-4-(6-fluoroquinolin-4-yl)cyclohexyl)propan-2-yl)-7-methoxyquinazolin-4-amine] | 47.5 |
| C[C@H](C[C@H]1CC[C@@H](c2ccnc3ccc(F)cc32)CC1)Nc1nc2cccc(F)c2o1 [Example 37, 7-fluoro-N-((R)-1-((cis)-4-(6-fluoroquinolin-4-yl)cyclohexyl)propan-2-yl)benzo[d]oxazol-2-amine] | 7.6 |
| C[C@H](C[C@H]1CC[C@@H](c2ccnc3ccc(F)cc32)CC1)Nc1nc(Cl)nc2cc(F)ccc12 [Example 62, 2-chloro-7-fluoro-N-((R)-1-((cis)-4-(6-fluoroquinolin-4-yl)cyclohexyl)propan-2-yl)quinazolin-4-amine] | 56.6 |
| C[C@H](C[C@H]1CC[C@@H](c2ccnc3ccc(F)cc32)CC1)Nc1nc(Cl)nc2cc(Cl)ccc12 [Example 40, 2,7-dichloro-N-((R)-1-((cis)-4-(6-fluoroquinolin-4-yl)cyclohexyl)propan-2-yl)quinazolin-4-amine] | 21.9 |
| C[C@H](C[C@H]1CC[C@@H](c2ccnc3ccc(F)cc32)CC1)Nc1nc2ccc(OCCF)cc2o1 [Example 45, 6-(2-fluoroethoxy)-N-((R)-1-((cis)-4-(6-fluoroquinolin-4-yl)cyclohexyl)propan-2-yl)benzo[d]oxazol-2-amine] | 5.5 |
| C[C@H](C[C@H]1CC[C@H](c2ccnc3ccc(F)cc32)CC1)Nc1nc(Cl)nc2ccc(F)cc12 [Example 48, 2-chloro-6-fluoro-N-((R)-1-((trans)-4-(6-fluoroquinolin-4-yl)cyclohexyl)propan-2-yl)quinazolin-4-amine] | 45.4 |
| C[C@H](C[C@H]1CC[C@@H](c2ccnc3ccc(F)cc32)CC1)Nc1nc(Cl)nc2c(Cl)cccc12 [Example 68, 2,8-dichloro-N-((R)-1-((cis)-4-(6-fluoroquinolin-4-yl)cyclohexyl)propan-2-yl)quinazolin-4-amine] | 50.5 |
| C[C@H](C[C@H]1CC[C@@H](c2ccnc3ccc(F)cc32)CC1)Nc1nc2ccc(Cl)c(Cl)c2o1 [Example 46, 6,7-dichloro-N-((R)-1-((cis)-4-(6-fluoroquinolin-4-yl)cyclohexyl)propan-2-yl)benzo[d]oxazol-2-amine] | 17.2 |
| C[C@H](C[C@H]1CC[C@H](c2ccnc3ccc(F)cc32)CC1)Nc1nc(Cl)nc2cc(Cl)ccc12 [Example 41, 2,7-dichloro-N-((R)-1-((trans)-4-(6-fluoroquinolin-4-yl)cyclohexyl)propan-2-yl)quinazolin-4-amine] | 7.6 |
| Cc1ccc2c(N[C@H](C)C[C@H]3CC[C@H](c4ccnc5ccc(F)cc54)CC3)nc(Cl)nc2c1 [Example 57, 2-chloro-N-((R)-1-((trans)-4-(6-fluoroquinolin-4-yl)cyclohexyl)propan-2-yl)-7-methylquinazolin-4-amine] | 25.2 |
| C[C@H](C[C@H]1CC[C@H](c2ccnc3ccc(F)cc32)CC1)Nc1nc(Cl)nc2cc(C#N)ccc12 [Example 55, 2-chloro-4-(((R)-1-((trans)-4-(6-fluoroquinolin-4-yl)cyclohexyl)propan-2-yl)amino)quinazolin-7-carbonitrile] | 28.2 |
| Cc1ccc2c(N[C@H](C)C[C@H]3CC[C@@H](c4ccnc5ccc(F)cc54)CC3)nc(Cl)nc2c1 [Example 65, 2-chloro-N-((R)-1-((cis)-4-(6-fluoroquinolin-4-yl)cyclohexyl)propan-2-yl)-7-methylquinazolin-4-amine] | 16.1 |
| C[C@H](C[C@H]1CC[C@H](c2ccnc3ccc(F)cc32)CC1)Nc1nc(Cl)nc2cc(F)ccc12 [Example 54, 2-chloro-7-fluoro-N-((R)-1-((trans)-4-(6-fluoroquinolin-4-yl)cyclohexyl)propan-2-yl)quinazolin-4-amine] | 43.6 |
| C[C@H](C[C@H]1CC[C@@H](c2ccnc3ccc(F)cc32)CC1)Nc1nc(Cl)nc2ccc(F)cc12 [Example 60, 2-chloro-6-fluoro-N-((R)-1-((cis)-4-(6-fluoroquinolin-4-yl)cyclohexyl)propan-2-yl)quinazolin-4-amine] | 61.1 |
| C[C@H](C[C@H]1CC[C@@H](c2ccnc3ccc(F)cc32)CC1)Nc1nc(Cl)nc2ccc(Cl)cc12 [Example 61, 2,6-dichloro-N-((R)-1-((cis)-4-(6-fluoroquinolin-4-yl)cyclohexyl)propan-2-yl)quinazolin-4-amine] | 406 |
| C[C@H](C[C@H]1CC[C@@H](c2ccnc3ccc(F)cc32)CC1)Nc1nccc2cc(Cl)ccc12 [Example 34, 6-chloro-N-((R)-1-((cis)-4-(6-fluoroquinolin-4-yl)cyclohexyl)propan-2-yl)isoquinolin-1-amine] | 68.6 |
| C[C@H](C[C@H]1CC[C@@H](c2ccnc3ccc(F)cc32)CC1)Nc1nc(Cl)nc2c(OC(F)(F)F)cccc12 [Example 71, 2-chloro-N-((R)-1-((cis)-4-(6-fluoroquinolin-4-yl)cyclohexyl)propan-2-yl)-8-(trifluoromethoxy)quinazolin-4-amine] | 276 |
| C[C@H](C[C@H]1CC[C@@H](c2ccnc3ccc(F)cc32)CC1)Nc1nc(Cl)nc2cc(Br)ccc12 [Example 64, 7-bromo-2-chloro-N-((R)-1-((cis)-4-(6-fluoroquinolin-4-yl)cyclohexyl)propan-2-yl)quinazolin-4-amine] | 38.8 |
| COc1ccc2c(N[C@H](C)C[C@H]3CC[C@H](c4ccnc5ccc(F)cc54)CC3)nc(Cl)nc2c1 [Example 59, 2-chloro-N-((R)-1-((trans)-4-(6-fluoroquinolin-4-yl)cyclohexyl)propan-2-yl)-7-methoxyquinazolin-4-amine] | 19.4 |
| COc1cccc2c(N[C@H](C)C[C@H]3CC[C@@H](c4ccnc5ccc(F)cc54)CC3)nc(Cl)nc12 [Example 70, 2-chloro-N-((R)-1-((cis)-4-(6-fluoroquinolin-4-yl)cyclohexyl)propan-2-yl)-8-methoxyquinazolin-4-amine] | 114 |
| C[C@H](C[C@H]1CC[C@@H](c2ccnc3ccc(F)cc32)CC1)Nc1nncc2cc(Cl)ccc12 [Example 39, 6-chloro-N-((R)-1-((cis)-4-(6-fluoroquinolin-4-yl)cyclohexyl)propan-2-yl)phthalazin-1-amine] | 9.7 |
| C[C@H](C[C@H]1CC[C@H](c2ccnc3ccc(F)cc32)CC1)Nc1nc(Cl)nc2cc(C(F)(F)F)ccc12 [Example 58, 2-chloro-N-((R)-1-((trans)-4-(6-fluoroquinolin-4-yl)cyclohexyl)propan-2-yl)-7-(trifluoromethyl)quinazolin-4-amine] | 16.8 |
| C[C@H](C[C@H]1CC[C@@H](c2ccnc3ccc(F)cc32)CC1)Nc1nc2c(Cl)cccc2s1 [Example 35, 4-chloro-N-((R)-1-((cis)-4-(6-fluoroquinolin-4-yl)cyclohexyl)propan-2-yl)benzo[d]thiazol-2-amine] | 105 |
| C[C@H](C[C@H]1CC[C@H](c2ccnc3ccc(F)cc32)CC1)Nc1nc(Cl)nc2c(Cl)cccc12 [Example 51, 2,8-dichloro-N-((R)-1-((trans)-4-(6-fluoroquinolin-4-yl)cyclohexyl)propan-2-yl)quinazolin-4-amine] | 124 |
| C[C@H](C[C@H]1CC[C@@H](c2ccnc3ccc(F)cc32)CC1)Nc1nc(Cl)nc2cc(C(F)(F)F)ccc12 [Example 66, 2-chloro-N-((R)-1-((cis)-4-(6-fluoroquinolin-4-yl)cyclohexyl)propan-2-yl)-7-(trifluoromethyl)quinazolin-4-amine] | 30.8 |
| C[C@H](C[C@H]1CC[C@H](c2ccnc3ccc(F)cc32)CC1)Nc1nc(Cl)nc2c(OC(F)(F)F)cccc12 [Example 53, 2-chloro-N-((R)-1-((trans)-4-(6-fluoroquinolin-4-yl)cyclohexyl)propan-2-yl)-8-(trifluoromethoxy)quinazolin-4-amine] | 57.4 |

Source: US20240174636A1, “NOVEL INDOLEAMINE 2,3-DIOXYGENASE INHIBITORS, PROCESSES FOR THE PREPARATION THEREOF AND PHARMACEUTICAL COMPOSITIONS COMPRISING THE SAME” (YUHAN CORPORATION, priority 2021, published 2024)
